Numbering of substitutions follows the chain as printed. Values belong to the molecule of their own block, whether it stands above or below them.
What was measured:
[1] = biological target: T1, endogenous Noggin (Mus musculus, UniProt P97466); assay: BMP-induced ALP activity in C2C12 cells without exogenously added Noggin; format: cell-based; conditions: absence of exogenously added Noggin, FIG. 8
T1 construct: in the absence of exogenously added Noggin in C2C12 cells; endogenous in cells; host or cells: mouse C2C12 cells (ATCC)
T1 sequence (P97466 28-232): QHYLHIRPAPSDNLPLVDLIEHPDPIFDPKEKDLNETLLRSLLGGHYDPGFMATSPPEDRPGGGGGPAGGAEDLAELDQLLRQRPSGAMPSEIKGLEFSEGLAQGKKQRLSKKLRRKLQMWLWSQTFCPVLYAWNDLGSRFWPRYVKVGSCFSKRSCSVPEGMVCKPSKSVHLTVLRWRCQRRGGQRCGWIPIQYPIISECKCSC
Description: Mouse C2C12 cells and Dulbecco's modified Eagle's medium (DMEM) were purchased from ATCC (Manassas, Va.). The non-heat inactivated fetal bovine serum (FBS) was purchased from HyClone Laboratories, Inc. (Logan, Utah). The C2C12 cells at passages 4 to 7 were subcultured in T-75 cm2 flasks in DMEM supplemented with 10% FBS at 37° C. in 5% CO2 with humidification. When the flasks reached 80% confluence, the cells were trypsinized and seeded in triplicate at 200,000 cells/well in a 6-well plate for quantitative real-time RT-PCR and alkaline phosphatase (ALP) assays or at 50,000 cells/well in a 12-well plate for the dual-luciferase reporter assay.
The C2C12 cells were plated at 200,000 cells/well in 6-well plates and grown overnight in DMEM containing 10% FBS. On day 2, the culture medium was replaced with DMEM containing 2% FBS and the cells were treated with 100 ng/ml of BMP-2, +/−various concentrations of the Noggin-interacting compound, and +/−100 ng/ml of Noggin for 72 hours. […] The ALP activity was measured in triplicate using an ALP assay kit (Sigma-Aldrich, St. Louis, Mo.) in microtiter plates. The protein amount was determined with Bio-Rad protein assay reagent (Bio-Rad, Hercules, Calif.) using bovine serum albumin (BSA) as a standard. […]

[2] = biological target: T2, Noggin (Homo sapiens, UniProt Q13253); assay: in vitro cell-based screening assays (luciferase reporter and ALP assays in C2C12 cells); conditions: BMP-2 +/- Noggin, FIG. 2-5
T2 construct: host or cells: added to mouse C2C12 cells
T2 sequence (Q13253 28-232): T1 sequence (P97466 28-232) with P67A
Description: The known crystals structures of complexes of BMP-2/BMPR-IA, BMP7/Noggin and BMP-2/BMPR-IA/ActR-II and BMPR-II monomer structures were analyzed. Using these structures ternary complexes of BMP-2/BMPR-IA/BMPR-II and BMP-2/Noggin (from BMP7/Noggin) were modeled. Solvent accessibility of complexes and the monomers were computed to identify exact binding regions and the individual residues involved in binding. The entire 430 Å^2 surface area of Noggin that binds to BMP-2 and thus block binding of BMP to BMPR-IA and BMPR-II binding regions were analyzed. Complementary regions in BMP were also evaluated in extensive virtual screenings using LUDI docking procedures using CAP commercially available molecular databases.
Mouse C2C12 cells and Dulbecco's modified Eagle's medium (DMEM) were purchased from ATCC (Manassas, Va.). […] When the flasks reached 80% confluence, the cells were trypsinized and seeded in triplicate at 200,000 cells/well in a 6-well plate for quantitative real-time RT-PCR and alkaline phosphatase (ALP) assays or at 50,000 cells/well in a 12-well plate for the dual-luciferase reporter assay.
The C2C12 cells were plated at 200,000 cells/well in 6-well plates and grown overnight in DMEM containing 10% FBS. […] The ALP activity was measured in triplicate using an ALP assay kit (Sigma-Aldrich, St. Louis, Mo.) in microtiter plates. […]

[3] = system: fetal rat calvarial osteoblast primary cell cultures; assay: BMP-induced bone nodules in fetal rat calvarial osteoblast primary cell cultures; format: cell-based; conditions: FIG. 6
[4] = system: bone growth; assay: Collagen disc implantation with Noggin-blockers and BMP-2 in rat ectopic model; format: in vivo, Harlan athymic rats; conditions: for Average / Results: 100ul, collagen carrier, chest implant, 4 weeks
From the text: Harlan athymic rats about 5-6 weeks of age were chest implanted with a collegan disc and doses of N50 in combination with BMP-2. After 4 weeks the rats were sacrificed and evaluated for bone growth.

SMILES: Cc1ccc(C(C#N)=Cc2cccc([N+](=O)[O-])c2)cc1 [N50-083, 3-(3-nitrophenyl)-2-(p-tolyl)acrylonitrile]
function of endogenous Noggin / BMP-induced ALP activity [1]: blocks function of endogenous Noggin by potentiating BMP-induced ALP activity

Noggin blocking [2]: confirmed Noggin blockers
SMILES: N#CC(=Cc1cccc(Cl)c1)c1ccccn1 (racemic) [N50, 3-(3-chlorophenyl)-2-(pyridin-2-yl)acrylonitrile]
BMP-induced bone nodules [3]: potentiation of BMP-induced bone nodules
Average ([4]; N50 4 mM + BMP-2 1.5 ug): 3
Results ([4]; N50 4 mM + BMP-2 1.5 ug): Bone made (4 of 4)
Average ([4]; N50 4 mM + BMP-2 5 ug): 4.25
Results ([4]; N50 4 mM + BMP-2 5 ug): Bone made (4 of 4)
Average ([4]; N50 8 mM + BMP-2 1.5 ug): 1.75
Results ([4]; N50 8 mM + BMP-2 1.5 ug): Bone made (2 of 4)
Average ([4]; N50 8 mM + BMP-2 5 ug): 3.25
Results ([4]; N50 8 mM + BMP-2 5 ug): Bone made (3 of 4)
Average ([4]; N50 12 mM + BMP-2 1.5 ug): 3.5
Results ([4]; N50 12 mM + BMP-2 1.5 ug): Bone made (4 of 4)
Average ([4]; N50 12 mM + BMP-2 5 ug): 4.75
Results ([4]; N50 12 mM + BMP-2 5 ug): Bone made (4 of 4)
bone growth ([4]; N50 in combination with BMP-2, after 4 weeks, certain doses): Certain doses showed improvement

Noggin blocking [2]: confirmed Noggin blockers
SMILES: Cc1cc(C)nc(NC(=O)c2sc3ccccc3c2Cl)c1 [N2, 3-chloro-N-(4,6-dimethylpyridin-2-yl)benzo[b]thiophene-2-carboxamide]
